Results published in patent US5446037A, “2-[(substituted) methylene]cephalosporin sulfones as antiinflammatory, antidegenerative and antithrombin agents” (Synphar Laboratories, Inc., priority 1993, dated 1995).

Legend:
[1] = biological target: T1, human leukocyte elastase (HLE) (Homo sapiens, UniProt P08246); assay: Human leukocyte elastase (HLE) inhibition (MeO-Suc-Ala-Ala-Pro-Val-pNA hydrolysis, absorbance at 410 nm); type: biochemical; conditions: Table I; pH 7.6, 30° C., 10 min pre-incubation, 10% (v/v) DMSO
T1 construct: purchased Elastin products, Missouri, U.S.A
T1 sequence (P08246 30-267): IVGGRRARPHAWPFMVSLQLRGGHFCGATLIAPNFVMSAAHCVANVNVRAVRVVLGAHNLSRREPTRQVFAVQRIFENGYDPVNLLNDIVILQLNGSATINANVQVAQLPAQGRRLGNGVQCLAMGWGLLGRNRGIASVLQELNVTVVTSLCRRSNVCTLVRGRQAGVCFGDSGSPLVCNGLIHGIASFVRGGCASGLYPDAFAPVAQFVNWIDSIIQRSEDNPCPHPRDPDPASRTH
Procedure: Determining HLE Inhibitory Activity
Human leukocyte elastase (HLE) obtained from Elastin products, Missouri, U.S.A., is dissolved in 0.05M sodium acetate containing 0.4M sodium chloride (pH 5.3) and stored at -20° C. Small aliquots of these stock solutions (1 μm) are used in the HLE assays.
Buffer: 0.01M Na, K-Phosphate, 0.5M NaCl (pH 7.6)
Substrate: 0,014M Meo-Suc-Ala-Ala-Pro-Val-pNA in DMSO
Inhibitor: various concentrations in DMSO
Enzyme: stock solution noted above
The stock solution of enzyme was equilibrated to 30° C. A cuvette containing buffer and inhibitor was equilibrated to 30° C. 10 μL of enzyme solution giving a rate of 0.04-0.05 AU/min in the absence of inhibitor, was mixed into the buffer/inhibitor solution and this mixture was incubated at 30° C. for 10 minutes. After this pre-incubation substrate was added to give a final concentration of […] and a final DMSO concentration of 10% (v/v). The rate of product formation, proportional to the change in absorbance at 410 nm, was monitored for two minutes following the addition of substrate. For a typical IC50 plot the rate was determined at 5-8 inhibitor concentrations (in duplicate) spanning 10-80% inhibition (in most cases). In most cases the data could be fit by linear least-squares and the IC50 determined from this plot.

human plasma thrombin = biological target: T2, human plasma thrombin (Homo sapiens, UniProt P00734); assay: Inhibition of thrombin (Chromozym TH spectrophotometric end-point assay, 410 nm); type: biochemical; conditions: Table II, pH 8.6, room temperature, 10 min pre-incubation, 30 min incubation
T2 construct: purchased Boehringer, Montreal, Canada
Procedure: Determining the Inhibition of Thrombin
Lyophilized human plasma thrombin obtained from Boehringer, Montreal, Canada was dissolved in 0.5M Na, K-phosphate buffer (pH 7.0) and stored at +4° C.
Substrate: 0.5 mM Chromozym TH (tosyl-glycyl-prolylarginine-4-nitroanilide acetate) in DMSO
Inhibitor: 10 μM dissolved in DMSO
Temperature: room temperature (approx.).
A single inhibitor concentration (10 μM) was tested using a spectrophotometric end-point assay (1 ml final volume). Enzyme activity was monitored by formation of a product that absorbed light at 410 nm and an enzyme concentration which gave a rate of 0.01-0.02 AU/min was used. Enzyme and inhibitor were pre-incubated for 10 min in the final amounts of buffer and DMSO. The reaction was then started by the addition of substrate. After 30 min incubation the reaction was terminated by the addition of 10% SDS (0.1 ml) and the absorbance measured. Enzyme blanks were run concurrently to account for any background absorbance by the compound. Inhibition was calculated by the net A410 in the presence of inhibitor compared to that in the absence of inhibitor (DMSO controls).

IC50 [1] | inhibition at 10 µM (human plasma thrombin) | SMILES
7.8 nM | – | CO[C@H]1C(=O)N2C(C(=O)OC(C)(C)C)=C(COC(C)=O)/C(=C/c3cn(C)nn3)S(=O)(=O)[C@H]12
9.2 nM | – | CO[C@H]1C(=O)N2C(C(=O)OC(C)(C)C)=C(COC(C)=O)/C(=C\c3cn(C)nn3)S(=O)(=O)[C@H]12
7.2 nM | – | CO[C@H]1C(=O)N2C(C(=O)OC(C)(C)C)=C(COC(C)=O)/C(=C\c3cccnc3)S(=O)(=O)[C@H]12
7.2 nM | – | CO[C@H]1C(=O)N2C(C(=O)OC(C)(C)C)=C(COC(C)=O)/C(=C/c3cccnc3)S(=O)(=O)[C@H]12
35 nM | – | CO[C@H]1C(=O)N2C(C(=O)OC(C)(C)C)=C(C)/C(=C/c3cccnc3)S(=O)(=O)[C@H]12
6.4 nM | – | CO[C@H]1C(=O)N2C(C(=O)OC(C)(C)C)=C(COC(C)=O)/C(=C/c3ccsc3)S(=O)(=O)[C@H]12
100 nM | – | CO[C@H]1C(=O)N2C(C(=O)OC(C)(C)C)=C(C)/C(=C\c3cn(C)nn3)S(=O)(=O)[C@H]12
75 nM | – | CO[C@H]1C(=O)N2C(C(=O)OC(C)(C)C)=C(C)/C(=C/c3cn(C)nn3)S(=O)(=O)[C@H]12
5.8 nM | – | CO[C@H]1C(=O)N2C(C(=O)OC(C)(C)C)=C(COC(C)=O)/C(=C/c3ccccc3F)S(=O)(=O)[C@H]12 [drawing 21]
6 nM | – | CO[C@H]1C(=O)N2C(C(=O)OC(C)(C)C)=C(COC(C)=O)/C(=C\c3ccccc3F)S(=O)(=O)[C@H]12 [drawing 22]
22 nM | – | CO[C@H]1C(=O)N2C(C(=O)OC(C)(C)C)=C(COC(C)=O)/C(=C\c3ccco3)S(=O)(=O)[C@H]12 [drawing 25]
6.4 nM | – | CO[C@H]1C(=O)N2C(C(=O)OC(C)(C)C)=C(COC(C)=O)/C(=C\c3ccsc3)S(=O)(=O)[C@H]12 [drawing 29]
– | 94.7% | CO[C@H]1C(=O)N2C(C(=O)OC(C)(C)C)=C(COC(C)=O)/C(=C\c3ccco3)S(=O)(=O)[C@H]12 [drawing 34]
– | 98.9% | CO[C@H]1C(=O)N2C(C(=O)OC(C)(C)C)=C(COC(C)=O)/C(=C\c3ccsc3)S(=O)(=O)[C@H]12 [drawing 35]
– | 96.8% | CO[C@H]1C(=O)N2C(C(=O)OC(C)(C)C)=C(COC(C)=O)/C(=C/c3ccccc3F)S(=O)(=O)[C@H]12 [drawing 36]
– | 98.5% | CO[C@H]1C(=O)N2C(C(=O)OC(C)(C)C)=C(COC(C)=O)/C(=C\c3ccccc3F)S(=O)(=O)[C@H]12 [drawing 37]
